# Assay results as given in patent publication US11236081B2, “Crystalline salts of corydalmine” (priority 2018, dated 2022).
# Where “and” joins values, the source holds several entries; their conditions need not be identical. Equal values may be shown once.
# What was measured:
# [1] = Pharmacokinetic study: plasma concentration and plasma PK parameters after IV/PO dosing (LC-MS/MS, WinNonlin); assay type: in vivo, Male SD Rat; conditions: for AUCInf / AUClast / AUClast/D / AUC—% Extrap_obs / Cmax / MRTInf_obs / T1/2 / Tmax / AUCInf, Mean / AUClast, Mean / AUClast/D, Mean / AUC—% Extrap_obs, Mean / Cmax, Mean / MRTInf_obs, Mean / T1/2, Mean / Tmax, Mean: plasma
# Text: Pharmacokinetic and Brain Penetration Study
# Dose formulation processing during dosing: The dose formulations will be kept at room temperature.
# Concentrations of Test Article in the plasma samples will be analyzed using a LC-MS/MS method.
# WinNonlin (Phoenix™, version 6.1) or other similar software will be used for pharmacokinetic calculations. The following pharmacokinetic parameters will be calculated, whenever possible from the plasma concentration versus time data:
# IV administration: T1/2, C0, AUClast, AUCinf, MRTinf, Cl, Vss, Number of Points for Regression.
# PO administration: T1/2, Cmax, Tmax, MRTinf, AUCinf, AUClast, F %, Number of Points for Regression.
# The pharmacokinetic data will be described using descriptive statistics such as mean, standard deviation.
# [2] = Solubility studies in water at 2 hours; assay type: physicochemical
# [3] = Dynamic vapor sorption (DVS), hygroscopicity at 25° C.; assay type: physicochemical; conditions: for hygroscopicity (DVS) / water absorbed in DVS: 25° C.; for water absorbed in DVS: at 80% RH
# Method: Dynamic Vapor Sorption (DVS)
# DVS was determined using DVS Intrinsic (SMS, UK). Transfer about 20 to 50 mg of the compound into a SMS dynamic vapor sorption model DVS and record the weight change with respect to a varying atmospheric humidity at 25° C.
# [4] = male SD rat, PO 10 mg/kg (equal to freebase), 0 h, individual rats, vehicle 20% HP-β-CD in water (POA, freebase) or water (salts)
# [5] = male SD rat, PO 10 mg/kg (equal to freebase), 0.25 h, individual rats, vehicle 20% HP-β-CD in water (POA, freebase) or water (salts), 10 mg/kg
# [6] = male SD rat, PO 10 mg/kg (equal to freebase), 0.25 h, mean n=3, vehicle 20% HP-β-CD in water (POA, freebase) or water (salts)
# [7] = male SD rat, PO 10 mg/kg (equal to freebase), 0.5 h, individual rats, vehicle 20% HP-β-CD in water (POA, freebase) or water (salts), 10 mg/kg
# [8] = male SD rat, PO 10 mg/kg (equal to freebase), 0.5 h, mean n=3, vehicle 20% HP-β-CD in water (POA, freebase) or water (salts)
# [9] = male SD rat, PO 10 mg/kg (equal to freebase), 1 h, individual rats, vehicle 20% HP-β-CD in water (POA, freebase) or water (salts), 10 mg/kg
# [10] = male SD rat, PO 10 mg/kg (equal to freebase), 1 h, mean n=3, vehicle 20% HP-β-CD in water (POA, freebase) or water (salts)
# [11] = male SD rat, PO 10 mg/kg (equal to freebase), 2 h, individual rats, vehicle 20% HP-β-CD in water (POA, freebase) or water (salts), 10 mg/kg
# [12] = male SD rat, PO 10 mg/kg (equal to freebase), 2 h, mean n=3, vehicle 20% HP-β-CD in water (POA, freebase) or water (salts)
# [13] = male SD rat, PO 10 mg/kg (equal to freebase), 4 h, individual rats, vehicle 20% HP-β-CD in water (POA, freebase) or water (salts), 10 mg/kg
# [14] = male SD rat, PO 10 mg/kg (equal to freebase), 4 h, mean n=3, vehicle 20% HP-β-CD in water (POA, freebase) or water (salts)
# [15] = male SD rat, PO 10 mg/kg (equal to freebase), 8 h, individual rats, vehicle 20% HP-β-CD in water (POA, freebase) or water (salts), 10 mg/kg
# [16] = male SD rat, PO 10 mg/kg (equal to freebase), 8 h, mean n=3, vehicle 20% HP-β-CD in water (POA, freebase) or water (salts)
# [17] = male SD rat, PO 10 mg/kg (equal to freebase), 24 h, individual rats, vehicle 20% HP-β-CD in water (POA, freebase) or water (salts)
# [18] = male SD rat, PO 10 mg/kg (equal to freebase), individual rats, vehicle 20% HP-β-CD in water (POA, freebase) or water (salts), 10 mg/kg
# [19] = male SD rat, PO 10 mg/kg (equal to freebase), mean n=3, vehicle 20% HP-β-CD in water (POA, freebase) or water (salts)
# [20] = PO (group POE), 10 mg/kg, individual rats R40, R41, R42, 10 mg/kg
# [21] = PO (group POE), 10 mg/kg, mean of R40-R42
Structure (SMILES),"concentration in plasma [1, 4]","concentration in plasma [1, 5]","concentration in plasma, Mean [1, 6] [ng/mL]","concentration in plasma [1, 7]","concentration in plasma, Mean [1, 8] [ng/mL]","concentration in plasma [1, 9]","concentration in plasma, Mean [1, 10] [ng/mL]","concentration in plasma [1, 11]","concentration in plasma, Mean [1, 12] [ng/mL]","concentration in plasma [1, 13]","concentration in plasma, Mean [1, 14] [ng/mL]","concentration in plasma [1, 15]","concentration in plasma, Mean [1, 16] [ng/mL]","concentration in plasma [1, 17]",solubility in water [2],hygroscopicity (DVS) [3],solid form after DVS test [3],water absorbed in DVS [3],other results
COc1cc2c(cc1OC)[C@@H]1Cc3ccc(O)c(OC)c3CN1CC2.O=C(O)/C=C\C(=O)O [TLZ-16 maleate],BLOQ (BLOQ = below limit of quantitation (0.2 ng/mL)),138 ng/mL and 257 ng/mL and 438 ng/mL,278,132 ng/mL and 290 ng/mL and 287 ng/mL,236,118 ng/mL and 206 ng/mL and 176 ng/mL,167,106 ng/mL and 175 ng/mL and 55.8 ng/mL,112,104 ng/mL and 116 ng/mL and 69.3 ng/mL,96.4,40.8 ng/mL and 34.5 ng/mL and 34.1 ng/mL,36.5,BLOQ (BLOQ = below limit of quantitation (0.2 ng/mL)),approximately 11.0 mg/mL,slightly hygroscopic,does not change,about 0.085 wt %,"F ([1]; male SD rat, PO 10 mg/kg (equal to freebase) vs IV 3 mg/kg freebase, individual rats, vehicle 20% HP-β-CD in water (POA, freebase) or water (salts)): 21.7% and 33.4% and 21.3%; F, Mean ([1]; male SD rat, PO 10 mg/kg (equal to freebase) vs IV 3 mg/kg freebase, mean n=3, vehicle 20% HP-β-CD in water (POA, freebase) or water (salts)): 25.5%; AUCInf [1, 18]: 965 ng·h/mL and 1132 ng·h/mL and 898 ng·h/mL; AUClast [1, 18]: 725 ng·h/mL and 1007 ng·h/mL and 709 ng·h/mL; AUClast/D [1, 18]: 72.5 kg·ng·h/mL/mg and 101 kg·ng·h/mL/mg and 70.9 kg·ng·h/mL/mg; AUC—% Extrap_obs [1, 18]: 24.9% and 11.1% and 21.0%; Cmax [1, 18]: 138 ng/mL and 290 ng/mL and 438 ng/mL; MRTInf_obs [1, 18]: 5.88 h and 3.67 h and 4.80 h; T1/2 [1, 18]: 4.08 h and 2.52 h and 3.83 h; Tmax [1, 18]: 0.25 h (2×) and 0.5 h; AUCInf, Mean [1, 19]: 998 ng·h/mL; AUClast, Mean [1, 19]: 814 ng·h/mL; AUClast/D, Mean [1, 19]: 81 kg·ng·h/mL/mg; AUC—% Extrap_obs, Mean [1, 19]: 19.0%; Cmax, Mean [1, 19]: 289 ng/mL; MRTInf_obs, Mean [1, 19]: 4.78 h; T1/2, Mean [1, 19]: 3.48 h; Tmax, Mean [1, 19]: 0.333 h"
COc1cc2c(cc1OC)[C@@H]1Cc3ccc(O)c(OC)c3CN1CC2.O=C(O)C(=O)O [TLZ-16 oxalate],BLOQ (BLOQ = below limit of quantitation (0.2 ng/mL)),302 ng/mL and 368 ng/mL and 131 ng/mL,267,270 ng/mL and 309 ng/mL and 148 ng/mL,242,143 ng/mL and 200 ng/mL and 121 ng/mL,155,70.8 ng/mL and 86.0 ng/mL and 156 ng/mL,104,63.1 ng/mL and 120 ng/mL and 95.0 ng/mL,92.7,10.1 ng/mL and 56.8 ng/mL and 29.1 ng/mL,32.0,BLOQ (BLOQ = below limit of quantitation (0.2 ng/mL)),approximately 19.2 mg/mL,slightly hygroscopic,does not change,about 0.25 wt %,"F [1, 20]: 18.5% and 28.8% and 25.3%; F, Mean [1, 21]: 24.2%; AUCInf [1, 20]: 629 ng·h/mL and 1369 ng·h/mL and 859 ng·h/mL; AUClast [1, 20]: 600 ng·h/mL and 960 ng·h/mL and 756 ng·h/mL; AUClast/D [1, 20]: 60 kg·ng·h/mL/mg and 96 kg·ng·h/mL/mg and 75.6 kg·ng·h/mL/mg; AUC—% Extrap_obs [1, 20]: 4.67% and 29.8% and 12.0%; Cmax [1, 20]: 302 ng/mL and 368 ng/mL and 156 ng/mL; MRTInf_obs [1, 20]: 2.59 h and 6.60 h and 3.95 h; T1/2 [1, 20]: 2.02 h and 4.98 h and 2.46 h; Tmax [1, 20]: 0.25 h (2×) and 2 h; AUCInf, Mean [1, 21]: 952 ng·h/mL; AUClast, Mean [1, 21]: 772 ng·h/mL; AUClast/D, Mean [1, 21]: 77.2 kg·ng·h/mL/mg; AUC—% Extrap_obs, Mean [1, 21]: 15.5%; Cmax, Mean [1, 21]: 275 ng/mL; MRTInf_obs, Mean [1, 21]: 4.38 h; T1/2, Mean [1, 21]: 3.15 h; Tmax, Mean [1, 21]: 0.833 h"
